{"source": "patent US20150065717A1", "about": "“NIPECOTIC ACID DERIVATIVE AND USE THEREOF FOR MEDICAL PURPOSES” (Toray Industries, Inc., priority 2012, published 2015)", "data": [{"test_system": "rat diabetic nephropathy model", "assay": "Pharmacological effect in rat diabetic nephropathy model (streptozotocin)", "format": "in vivo, rat (spontaneously hypertensive rat)", "settings": "Day 27 after streptozotocin; orally once per day for 20 days from Day 8 (Example Compound 1 10 mg/kg, imidapril 2 mg/kg); mean±standard error, n=6", "experimental": "Example Compound 1 was administered to a rat diabetic nephropathy model (International Journal of Molecular Medicine, 2007, vol. 19, p. 571-579; Hypertension, 1998, vol. 32, p. 778-785), and the therapeutic effect of the nipecotic acid derivative (I) or a pharmaceutically acceptable salt thereof on chronic renal disease with diabetic nephropathy was evaluated.\nRats (spontaneously hypertensive rat, male, 12 or 13 weeks old; Charles River Laboratories Japan, Inc.) with diabetic nephropathy induced by administration of an aqueous streptozotocin (Enzo Life Sciences, Inc.) solution (40 mg/kg) into the tail vein were provided as “group with induced diabetic nephropathy”. On the other hand, rats to which water for injection was similarly administered were provided as “untreated group”.\nSix weeks after administration of streptozotocin, urine was collected using a metabolic cage at room temperature for 24 hours. The urinary albumin concentration in the collected urine was measured by the ELISA method. From the urinary albumin concentration and the urine weight, the amount of urinary albumin excretion was calculated.\nTo rats showing pathological conditions of diabetic nephropathy in the group with induced diabetic nephropathy, Example Compound 1 (10 mg/kg) or a positive control compound imidapril (2 mg/kg) was orally administered once per day for 20 days from Day 8 after the administration of streptozotocin. […]\nAfter the last administration of the test substance on Day 27 after administration of streptozotocin, urine was collected using a metabolic cage at room temperature for 24 hours. The urinary albumin concentration in the collected urine was measured by the ELISA method. From the urinary albumin concentration and the urine weight, the amount of urinary albumin excretion was calculated. In addition, on Day 18 after administration of streptozotocin, the systemic systolic pressure was measured by the tail-cuff method. On Day 29 after administration of streptozotocin, blood was collected from the abdominal aorta of each rat, and the plasma glucose concentration was measured. […]", "units": {"amount of urinary albumin excretion": "mg/day"}, "values": [{"smiles": "CCOC(=O)[C@H](CCc1ccccc1)N[C@@H](C)C(=O)N1C(=O)N(C)C[C@H]1C(=O)O", "note": "[imidapril, reference compound]", "amount of urinary albumin excretion": "5.66 ± 0.91"}]}, {"biological_target": "T1, recombinant human sEH (Homo sapiens, UniProt P34913)", "T1 construct": "purchased Cayman", "T1 sequence (P34913 1-555)": "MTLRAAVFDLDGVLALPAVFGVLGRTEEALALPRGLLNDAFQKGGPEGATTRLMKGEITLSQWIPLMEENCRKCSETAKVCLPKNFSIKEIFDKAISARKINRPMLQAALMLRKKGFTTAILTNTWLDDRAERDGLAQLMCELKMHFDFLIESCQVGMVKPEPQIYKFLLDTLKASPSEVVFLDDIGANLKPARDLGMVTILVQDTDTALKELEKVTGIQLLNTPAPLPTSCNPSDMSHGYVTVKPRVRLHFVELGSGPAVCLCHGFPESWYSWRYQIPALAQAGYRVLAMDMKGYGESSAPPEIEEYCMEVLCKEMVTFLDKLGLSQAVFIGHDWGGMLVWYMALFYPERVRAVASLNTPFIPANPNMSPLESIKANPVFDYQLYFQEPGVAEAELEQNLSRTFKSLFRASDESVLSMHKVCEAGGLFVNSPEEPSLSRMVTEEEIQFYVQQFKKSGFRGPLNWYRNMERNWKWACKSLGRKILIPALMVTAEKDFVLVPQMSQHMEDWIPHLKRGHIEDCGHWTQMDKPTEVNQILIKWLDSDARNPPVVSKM", "assay": "In vitro evaluation test for sEH inhibitory activity", "format": "biochemical", "settings": "recombinant human sEH 0.026 μg/mL, fluorescent substrate 6.25 μmol/L, room temperature", "experimental": "According to the method described in a known document (Analytical Biochemistry, 2005, vol. 343, p. 66-75), the sEH inhibitory activity of each nipecotic acid derivative (I) or a pharmaceutically acceptable salt thereof was evaluated using human sEH.\nA recombinant human sEH (final concentration, 0.026 μg/mL; Cayman) was incubated with each test compound in 25 mM Bis-Tris-HCl buffer (pH 7.0) supplemented with 0.1 mg/mL BSA at room temperature for 30 minutes. Thereafter, cyano(6-methoxynaphthalen-2-yl)methyl 2-(3-phenyloxiran-2-yl)acetate (final concentration, 6.25 μmol/L; Cayman) was added thereto as a fluorescent substrate, and the resulting mixture was incubated at room temperature for 20 minutes. The reaction was then stopped by addition of ZnSO4 (final concentration, 0.2 mol/L), and the fluorescence intensity was measured (Fusion α (Packard); Excitation: 330 nm, Emission:485 nm).\nThe fluorescence intensity observed with addition of neither sEH nor a test compound was regarded as the sEH enzymatic reaction rate of 0%, and the fluorescence intensity observed with addition of sEH but without addition of a test compound was regarded as the sEH enzymatic reaction rate of 100%. From the obtained fluorescence intensity, the sEH enzymatic reaction rate of each test compound was calculated to determine IC50.", "units": {"IC50": "nM"}, "values": [{"smiles": "CS(=O)(=O)NC1(C(=O)N2CCC[C@@H](C(=O)NCc3ccc(C#N)cc3OC(F)(F)F)C2)CCOCC1", "note": "[Example Compound 28, (R)—N-(4-cyano-2-(trifluoromethoxy)benzyl)-1-(4-(methylsulfonamido)tetrahydro-2H-pyran-4-carbonyl)piperidine-3-carboxamide]", "IC50": 2.3}, {"smiles": "N#Cc1ccc(CNC(=O)[C@@H]2CCCN(C(=O)C3(NC(=O)C4CC4)CCC3)C2)c(OC(F)(F)F)c1", "note": "[Example Compound 29, (R)—N-(4-cyano-2-(trifluoromethoxy)benzyl)-1-(1-(cyclopropanecarboxamide)cyclobutanecarbonyl)piperidine-3-carboxamide]", "IC50": 1.7}, {"smiles": "CC(=O)N[C@@H](C(=O)N1CCC[C@@H](C(=O)NCc2ccc(C#N)cc2OC(F)(F)F)C1)C(C)(C)O", "note": "[Example Compound 30, (R)-1-((R)-2-acetamido-3-hydroxy-3-methylbutanoyl)-N-(4-cyano-2-(trifluoromethoxy)benzyl)piperidine-3-carboxamide]", "IC50": 1.4}, {"smiles": "CCC(=O)N[C@@H](C(=O)N1CCC[C@@H](C(=O)NCc2ccc(C#N)cc2OC(F)(F)F)C1)C(C)(C)O", "note": "[Example Compound 31, (R)—N-(4-cyano-2-(trifluoromethoxy)benzyl)-1-((R)-3-hydroxy-3-methyl-2-propionamidobutanoyl)piperidine-3-carboxamide]", "IC50": 1.3}, {"smiles": "CC(C)(O)[C@@H](NS(C)(=O)=O)C(=O)N1CCC[C@@H](C(=O)NCc2ccc(C#N)cc2OC(F)(F)F)C1", "note": "[Example Compound 32, (R)—N-(4-cyano-2-(trifluoromethoxy)benzyl)-1-((R)-3-hydroxy-3-methyl-2-(methylsulfonamido)butanoyl)piperidine-3-carboxamide]", "IC50": 1}, {"smiles": "CCCC(=O)NC1(C(=O)N2CCC[C@@H](C(=O)NCc3ccc(C#N)cc3OC(F)(F)F)C2)CCC1", "note": "[Example Compound 33, (R)-1-(1-butylamidocyclobutanecarbonyl)-N-(4-cyano-2-(trifluoromethoxy)benzyl)piperidine-3-carboxamide]", "IC50": 2.4}, {"smiles": "N#Cc1ccc(CNC(=O)[C@@H]2CCCN(C(=O)C3(NC(=O)CC4CC4)CCC3)C2)c(OC(F)(F)F)c1", "note": "[Example Compound 34, (R)—N-(4-cyano-2-(trifluoromethoxy)benzyl)-1-(1-(2-cyclopropylacetamido)cyclobutanecarbonyl)piperidine-3-carboxamide]", "IC50": 0.8}, {"smiles": "N#Cc1ccc(CNC(=O)[C@@H]2CCCN(C(=O)C3(NC(=O)CC4CC4)CC3)C2)c(OC(F)(F)F)c1", "note": "[Example Compound 35, (R)—N-(4-cyano-2-(trifluoromethoxy)benzyl)-1-(1-(2-cyclopropylacetamido)cyclopropanecarbonyl)piperidine-3-carboxamide]", "IC50": 6.7}, {"smiles": "CC(C)(C(=O)N1CCC[C@@H](C(=O)NCc2ccc(C#N)cc2OC(F)(F)F)C1)n1cncn1", "note": "[Example Compound 36, (R)—N-(4-cyano-2-(trifluoromethoxy)benzyl)-1-(2-methyl-2-(1H-1,2,4-triazol-1-yl)propanoyl)piperidine-3-carboxamide]", "IC50": 1.5}, {"smiles": "O=C(NCc1ccc(Cl)cc1Cl)[C@@H]1CCCN(C(=O)C2(O)CCCCC2)C1", "note": "[Example Compound 38, (R)—N-(2,4-dichlorobenzyl)-1-(1-hydroxycyclohexanecarbonyl)piperidine-3-carboxamide]", "IC50": 2.1}, {"smiles": "CC(=O)N[C@@H](C(=O)N1CCC[C@@H](C(=O)NCc2ccc(Cl)cc2Cl)C1)C(C)(C)O", "note": "[Example Compound 39]", "IC50": 0.7}, {"smiles": "CCC(=O)N[C@@H](C(=O)N1CCC[C@@H](C(=O)NCc2ccc(Cl)cc2Cl)C1)C(C)(C)O", "note": "[Example Compound 40, (R)—N-(2,4-dichlorobenzyl)-1-((R)-3-hydroxy-3-methyl-2-propionamidobutanoyl)piperidine-3-carboxamide]", "IC50": 0.7}, {"smiles": "CC(C)(O)[C@@H](NS(C)(=O)=O)C(=O)N1CCC[C@@H](C(=O)NCc2ccc(Cl)cc2Cl)C1", "note": "[Example Compound 41, (R)—N-(2,4-dichlorobenzyl)-1-((R)-3-hydroxy-3-methyl-2-(methylsulfonamido)butanoyl)piperidine-3-carboxamide]", "IC50": 1.1}, {"smiles": "C[C@@H](O)C(=O)N1CCC[C@@H](C(=O)NCc2ccc(C#N)cc2OC(F)(F)F)C1", "note": "[Example Compound 42, (R)—N-(4-cyano-2-(trifluoromethoxy)benzyl)-1-((R)-2-hydroxypropanoyl)piperidine-3-carboxamide]", "IC50": 3.5}, {"smiles": "CC[C@@H](O)C(=O)N1CCC[C@@H](C(=O)NCc2ccc(C#N)cc2OC(F)(F)F)C1", "note": "[Example Compound 43, (R)—N-(4-cyano-2-(trifluoromethoxy)benzyl)-1-((R)-2-hydroxybutanoyl)piperidine-3-carboxamide]", "IC50": 1.2}, {"smiles": "CC(C)[C@@H](O)C(=O)N1CCC[C@@H](C(=O)NCc2ccc(C#N)cc2OC(F)(F)F)C1", "note": "[Example Compound 44, (R)—N-(4-cyano-2-(trifluoromethoxy)benzyl)-1-((R)-2-hydroxy-3-methylbutanoyl)piperidine-3-carboxamide]", "IC50": 0.5}]}]}
